{"source": "ChEMBL document CHEMBL5518172", "about": "“Discovery of hydroxamate as a promising scaffold dually inhibiting metallo- and serine-β-lactamases” (Eur J Med Chem, 2024)", "key": {"Escherichia coli [1]": {"test_system": "Escherichia coli", "assay": "Synergistic antibacterial activity against Escherichia coli harboring NDM-1 infected in Kunming mouse model assessed as reduction in bacterial load in liver at 20 mg/kg, ip co-administered with 10 mg/kg of meropenem", "assay_type": "functional, organism-based"}, "Escherichia coli [2]": {"test_system": "Escherichia coli", "assay": "Synergistic antibacterial activity against Escherichia coli BL21 (DE3) harboring NDM-1 assessed as fold decrease in meropenem MIC at 64 microg/ml measured after 16 hrs by CLSI protocol based broth microdilution method", "assay_type": "functional", "conditions": "dose 64 µg/ml"}, "Bacteria [3]": {"test_system": "Bacteria", "assay": "Inhibition of recombinant serine beta lactamase OXA-48 (unknown origin) expressed in Escherichia coli BL21 (DE3) cells assessed as reduction in residual activity incubated for 120 min", "conditions": "dose 0.3-5 µM"}, "Escherichia coli [4]": {"test_system": "Escherichia coli", "assay": "Synergistic antibacterial activity against Escherichia coli BL21 (DE3) harboring serine beta lactamase KPC-2 assessed as reduction in meropenem MIC upto 256 microg/ml in presence of meropenem by microdilution checkerboard assay", "assay_type": "functional, organism-based", "conditions": "dose <= 256.0 µg/ml"}, "Escherichia coli [5]": {"test_system": "Escherichia coli", "assay": "Synergistic antibacterial activity against Escherichia coli BL21 (DE3) harboring NDM-1 assessed as decrease in bacterial colony at 128 microg/ml incubated for 12 hrs in presence of meropenem by imaging analysis", "assay_type": "functional, organism-based", "conditions": "dose 128.0 µg/ml"}, "Bacteria [6]": {"test_system": "Bacteria", "assay": "Irreversible inhibition of recombinant serine beta lactamase OXA-48 (unknown origin) expressed in Escherichia coli BL21 (DE3) cells using cefazolin as substrate assessed as reduction in residual activity at 5 uM preincubated for 6 hrs followed by dialysis and measured after 24 hrs"}, "Escherichia coli [7]": {"test_system": "Escherichia coli", "assay": "Synergistic antibacterial activity against Escherichia coli clinical isolate 04 assessed as meropenem MIC at 64 microg/ml measured after 16 hrs by CLSI protocol based broth microdilution method (reference value: 256 microg/ml)", "assay_type": "functional", "conditions": "dose 64 µg/ml"}, "[8]": {"molecular_target": "Metallo-beta-lactamase type 2 (Bacteria) (UniProt C7C422)", "sequence (C7C422 whole entry)": "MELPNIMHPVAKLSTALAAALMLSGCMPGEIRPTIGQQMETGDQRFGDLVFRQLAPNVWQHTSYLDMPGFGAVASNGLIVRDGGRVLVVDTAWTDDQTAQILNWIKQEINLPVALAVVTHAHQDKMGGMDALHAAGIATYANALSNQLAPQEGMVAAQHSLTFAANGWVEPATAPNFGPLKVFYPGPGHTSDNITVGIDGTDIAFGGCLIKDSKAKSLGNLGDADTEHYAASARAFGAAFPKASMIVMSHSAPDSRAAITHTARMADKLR", "assay": "Inhibition of recombinant NDM-1 (unknown origin) expressed in Escherichia coli BL21 (DE3) cells assessed as maximal inhibition at 5 uM incubated for 5 hrs"}, "Escherichia coli [9]": {"test_system": "Escherichia coli", "assay": "Synergistic antibacterial activity against Escherichia coli clinical isolate 10 assessed as meropenem MIC at 64 microg/ml measured after 16 hrs by CLSI protocol based broth microdilution method (reference value: 512 microg/ml)", "assay_type": "functional", "conditions": "dose 64 µg/ml"}, "Bacteria [10]": {"test_system": "Bacteria", "assay": "Inhibition of recombinant IMP-1 (unknown origin) expressed in Escherichia coli BL21 (DE3) cells assessed as maximal inhibition at 5 uM incubated for 10 hrs"}, "Bacteria [11]": {"test_system": "Bacteria", "assay": "Inhibition of recombinant metallo-beta-lactamase IMP-1 (unknown origin) expressed in Escherichia coli BL21 (DE3) cells using cefazolin as substrate at 20 uM by spectrometric analysis relative to control"}, "Escherichia coli [12]": {"test_system": "Escherichia coli", "assay": "Synergistic antibacterial activity against Escherichia coli assessed as meropenem MIC at 64 microg/ml measured after 16 hrs by CLSI protocol based broth microdilution method (reference value: 64 microg/ml)", "assay_type": "functional", "conditions": "dose 64 µg/ml"}, "[13]": {"molecular_target": "Metallo-beta-lactamase type 2 (Bacteria) (UniProt C7C422)", "assay": "Inhibition of recombinant NDM-1 (unknown origin) expressed in Escherichia coli BL21 (DE3) cells assessed as reduction in residual activity at 0.3 to 5 uM", "conditions": "dose 0.3-5 µM, time 20.0 hrs, TDE = time-dependent effect"}, "Escherichia coli [14]": {"test_system": "Escherichia coli", "assay": "Synergistic antibacterial activity against Escherichia coli clinical isolate 24 assessed as fold decrease in meropenem MIC at 64 microg/ml measured after 16 hrs by CLSI protocol based broth microdilution method", "assay_type": "functional", "conditions": "dose 64 µg/ml"}, "Escherichia coli [15]": {"test_system": "Escherichia coli", "assay": "Antibacterial activity against Escherichia coli BL21 (DE3) harboring serine beta lactamase KPC-2 assessed as inhibition of bacterial growth upto 512 microg/ml by microdilution checkerboard assay", "assay_type": "functional, organism-based", "conditions": "dose <= 512.0 µg/ml"}, "[16]": {"molecular_target": "T1, Metallo-beta-lactamase type 2 (Bacteria, UniProt C7C422)", "T1 sequence (C7C422 whole entry)": "as above", "assay": "Non-competitive inhibition of recombinant NDM-1 (unknown origin) expressed in Escherichia coli BL21 (DE3) cells using meropenem as substrate assessed as inhibition constant by Lineweaver-Burk plot analysis"}, "Escherichia coli [17]": {"test_system": "Escherichia coli", "assay": "Synergistic antibacterial activity against Escherichia coli BL21 (DE3) harboring NDM-1 assessed as reduction in meropenem MIC upto 256 microg/ml in presence of meropenem by microdilution checkerboard assay", "assay_type": "functional, organism-based", "conditions": "dose <= 256.0 µg/ml"}, "Escherichia coli [18]": {"test_system": "Escherichia coli", "assay": "Synergistic antibacterial activity against Escherichia coli BL21 (DE3) harboring metallo-beta-lactamase IMP-1 assessed as decrease in bacterial colony at 128 microg/ml incubated for 12 hrs in presence of meropenem by imaging analysis", "assay_type": "functional, organism-based", "conditions": "dose 128.0 µg/ml"}, "Escherichia coli [19]": {"test_system": "Escherichia coli", "assay": "Synergistic antibacterial activity against Escherichia coli BL21 (DE3) harboring serine beta lactamase KPC-2 assessed as meropenem MIC at 64 microg/ml measured after 16 hrs by CLSI protocol based broth microdilution method (reference value: 16 microg/ml)", "assay_type": "functional", "conditions": "dose 64 µg/ml"}, "[20]": {"molecular_target": "Metallo-beta-lactamase type 2 (Bacteria) (UniProt C7C422)", "assay": "Inhibition of recombinant NDM-1 (unknown origin) expressed in Escherichia coli BL21 (DE3) cells assessed as reduction in residual activity incubated for 20 hrs", "conditions": "dose 0.3-5 µM"}, "Klebsiella pneumoniae": {"test_system": "Klebsiella pneumoniae", "assay": "Synergistic antibacterial activity against KPC and NDM-1 producing Klebsiella pneumoniae assessed as meropenem MIC at 64 microg/ml incubated for 16 hrs by CLSI protocol based broth microdilution method (reference value: 256 microg/ml)", "assay_type": "functional", "conditions": "dose 64 µg/ml"}, "Bacteria [21]": {"test_system": "Bacteria", "assay": "Inhibition of recombinant serine beta lactamase OXA-48 (unknown origin) expressed in Escherichia coli BL21 (DE3) cells using cefazolin as substrate assessed as residual activity at 20 uM relative to control"}, "Escherichia coli [22]": {"test_system": "Escherichia coli", "assay": "Synergistic antibacterial activity against Escherichia coli clinical isolate 06 assessed as meropenem MIC at 64 microg/ml measured after 16 hrs by CLSI protocol based broth microdilution method (reference value: 128 microg/ml)", "assay_type": "functional", "conditions": "dose 64 µg/ml"}, "[23]": {"molecular_target": "T1, Metallo-beta-lactamase type 2", "assay": "Inhibition of recombinant NDM-1 (unknown origin) expressed in Escherichia coli BL21 (DE3) cells using meropenem as substrate by spectrometric analysis"}, "Escherichia coli [24]": {"test_system": "Escherichia coli", "assay": "Synergistic antibacterial activity against Escherichia coli clinical isolate 04 assessed as fold decrease in meropenem MIC at 64 microg/ml measured after 16 hrs by CLSI protocol based broth microdilution method", "assay_type": "functional", "conditions": "dose 64 µg/ml"}, "Bacteria [25]": {"test_system": "Bacteria", "assay": "Inhibition of recombinant serine beta lactamase KPC-2 (unknown origin) expressed in Escherichia coli BL21 (DE3) cells using cefazolin as substrate assessed as reduction in residual activity", "conditions": "dose 0.075-20 µM"}, "Bacteria [26]": {"test_system": "Bacteria", "assay": "Inhibition of recombinant metallo-beta-lactamase L-1 (unknown origin) expressed in Escherichia coli BL21 (DE3) cells using cefazolin as substrate at 20 uM by spectrometric analysis relative to control"}, "Bacteria [27]": {"test_system": "Bacteria", "assay": "Inhibition of recombinant serine beta lactamase OXA-48 (unknown origin) expressed in Escherichia coli BL21 (DE3) cells assessed as reduction in residual activity at 0.3 to 5 uM", "conditions": "dose 0.3-5 µM, time 120.0 min, TDE = time-dependent effect"}, "[28]": {"assay": "Inhibition of recombinant serine beta lactamase KPC-2 (unknown origin) expressed in Escherichia coli BL21 (DE3) cells using meropenem as substrate by spectrometric analysis", "set-up": "species or system Bacteria"}, "Bacteria [29]": {"test_system": "Bacteria", "assay": "Binding affinity to recombinant metallo-beta-lactamase IMP-1 (unknown origin) expressed in Escherichia coli BL21 (DE3) cells assessed as thermal stabilization by measuring change in melting temperature at 50 uM incubated under 25 to 80 degreeC by SYPRO orange dye based thermal shift assay (reference value: 71.9 degreeC)"}, "Bacteria [30]": {"test_system": "Bacteria", "assay": "Inhibition of recombinant serine beta lactamase KPC-2 (unknown origin) expressed in Escherichia coli BL21 (DE3) cells assessed as maximal inhibition at 5 uM incubated for 2.5 hrs"}}, "note": "Active and inactive are the calls of the source. The calls are words filed in the database; no cut-off is given here.", "data": [{"smiles": "O=C(CCCc1ccccc1)NOC(=O)OCc1ccccc1", "values": [{"measurement": "Activity", "setting": "Escherichia coli [1]", "result": "Active"}, {"measurement": "fold change (FC)", "setting": "Escherichia coli [2]", "result": 8}, {"measurement": "inhibition", "setting": "Bacteria [3]", "result": "Dose-Dependent Effect"}, {"measurement": "Activity", "setting": "Escherichia coli [4]", "result": "Active"}, {"measurement": "Activity", "setting": "Escherichia coli [5]", "result": "Active"}, {"measurement": "inhibition", "setting": "Bacteria [6]", "result": "Active"}, {"measurement": "MIC", "setting": "Escherichia coli [7]", "result": 128, "unit": "µg/mL"}, {"measurement": "inhibition", "setting": "[8]", "result": "Active"}, {"measurement": "MIC", "setting": "Escherichia coli [9]", "result": 64, "unit": "µg/mL"}, {"measurement": "inhibition", "setting": "Bacteria [10]", "result": "Active"}, {"measurement": "inhibition", "setting": "Bacteria [11]", "result": "> 90", "unit": "%"}, {"measurement": "MIC", "setting": "Escherichia coli [12]", "result": 64, "unit": "µg/mL"}, {"measurement": "inhibition", "setting": "[13]", "result": "Tde"}, {"measurement": "fold change (FC)", "setting": "Escherichia coli [14]", "result": 2}, {"measurement": "Activity", "setting": "Escherichia coli [15]", "result": "inactive"}, {"measurement": "Ki", "setting": "[16]", "result": 2500, "unit": "nM"}, {"measurement": "Activity", "setting": "Escherichia coli [17]", "result": "Active"}, {"measurement": "Activity", "setting": "Escherichia coli [18]", "result": "Active"}, {"measurement": "MIC", "setting": "Escherichia coli [19]", "result": 4, "unit": "µg/mL"}, {"measurement": "inhibition", "setting": "[20]", "result": "Dose-Dependent Effect"}, {"measurement": "MIC", "setting": "Klebsiella pneumoniae", "result": 256, "unit": "µg/mL"}, {"measurement": "Activity", "setting": "Bacteria [21]", "result": "< 10", "unit": "%"}, {"measurement": "MIC", "setting": "Escherichia coli [22]", "result": 64, "unit": "µg/mL"}, {"measurement": "IC50", "setting": "[23]", "result": 640, "unit": "nM"}, {"measurement": "fold change (FC)", "setting": "Escherichia coli [24]", "result": 2}, {"measurement": "inhibition", "setting": "Bacteria [25]", "result": "Dose-Dependent Effect"}, {"measurement": "inhibition", "setting": "Bacteria [26]", "result": "< 42", "unit": "%"}, {"measurement": "inhibition", "setting": "Bacteria [27]", "result": "Tde"}, {"measurement": "IC50", "setting": "[28]", "result": 570, "unit": "nM"}, {"measurement": "Tm", "setting": "Bacteria [29]", "result": 74.3, "unit": "°C"}, {"measurement": "inhibition", "setting": "Bacteria [30]", "result": "Active"}]}]}
